Reference: US20140094413A1, “HEPATOCYTE GROWTH FACTOR (HGF) MIMICS AS THERAPEUTIC AGENTS” (WASHINGTON STATE UNIVERSITY, priority 2012, published 2014)
Values joined by “and” are separate entries in the source; they are usually repeats but may differ in a detail not shown here. Equal entries are not always repeated. Where a SMILES comes first, the peptide text is derived from it. [ ]: non-standard residue; d: D form. The star is where a group is joined. Nle = CCCC[C@H](N)C(=O)O; Hexanoyl = CCCCCC(=O)*; Ahx = NCCCCCC(=O)O

Columns and labels:
hippocampal neurons = assay: Spinogenesis in mRFP-β-actin transfected dissociated hippocampal neurons; format: cell-based, rat; details: for Spine numbers (spinogenesis) vs vehicle: 1 μM as printed in FIG. 34 legend; for Number of spines per 50 μm dendrite length: 10^−10 M; for Increase in the number of spines vs vehicle: 5 day treatment; for Spine density, dose dependence: 5 day stimulation, wide range of concentrations
Procedure: (§1) Hippocampal neurons (2×10^5 cells per square cm) were cultured from P1 Sprague Dawley rats on plates coated with poly-L-lysine from Sigma (St. Louis, Mo.; molecular weight 300,000). Hippocampal neurons were maintained in Neurobasal A media from Invitrogen (Carlsbad, Calif.) supplemented with B27 from Invitrogen, 0.5 mM L-glutamine, and […] cytosine-D-arabinofuranoside from Sigma added at 2 days in vitro. Hippocampal neurons were then cultured a further 3-7 days, at which time they were either transfected or treated with various pharmacological reagents as described in (Wayman, Davare et al. 2008).
(§2) Neurons were transfected with mRFP-β-actin on day in vitro 6 (DIV6) using LipofectAMINE™ 2000 (Invitrogen) according to the manufacturer's protocol. This protocol yielded the desired 3-5% transfection efficiency thus enabling the visualization of individual neurons. Higher efficiencies obscured the dendritic arbor of individual neurons. Expression of fluorescently tagged actin allowed clear visualization of dendritic spines, as dendritic spines are enriched in actin. […] On DIV 12 the neurons were fixed (4% paraformaldehyde, 3% sucrose, 60 mM PIPES, 25 mM HEPES, 5 mM EGTA, 1 mM MgCl2, pH 7.4) for 20 min at room temperature and mounted. Slides were dried for at least 20 hours at 4° C. and fluorescent images were obtained with Slidebook 4.2 Digital Microscopy Software driving an Olympus IX81 inverted confocal microscope with a 60× oil immersion lens, NA 1.4 and resolution 0.280 μm Dendritic spine density was measured on primary and secondary dendrites at a distance of at least 150 μm from the soma. Five 50 μm long segments of dendrite from at least 10 neurons per data point were analyzed for each data point reported. Each experiment was repeated at least three times using independent culture preparations. Dendrite length was determined using the National Institutes of Health's Image J 1.41o program (NIH, Bethesda, Md.) and the neurite tracing program Neuron J (Meijering, Jacob et al. 2004) Spines were manually counted.
as §1, with “centimeter)” for “cm)”, “P1-2” for “P1”, “the text or figure legends.” for “(Wayman, Davare et al. 2008).”
as §2, with “DIV12” for “DIV 12”, “Dendrite length was determined using the National Institutes of Health's Image J 1.41o program (NIH, Bethesda, Md.) and the neurite tracing program Neuron J (Meijering, Jacob et al. 2004) Spines were manually counted.” left out

CA1 hippocampal neurons = assay: Spinogenesis in organotypic hippocampal slice cultures; format: cell-based, rat
Procedure: (§3) Hippocampi from P4 Sprague Dawley rats were cultured as previously described (Wayman, Impey et al. 2006). Briefly, 400 μm slices were cultured on (Milipore, Billerica, Mass.) for 3 days after which they were biolistically transfected with tomato fluorescent protein (TIT) using a Helios Gen Gun (BioRad, Hercules, Calif.), according to the manufacturer's protocol, to visualize dendritic arbors. Following a 24 hour recovery period slices were stimulated with vehicle (H2O), […] Nle1-AngIV or Dihexa for 2 days. Slices were fixed and mounted. Hippocampal CA1 neuronal processes were imaged and measured as described above.
as §3, with “(TFP)” for “(TIT)”, “Gene” for “Gen”, “with” for “with vehicle (H2O),”

[1] = 10^−12 M, acute 30 minute application on DIV 12

Compound	Concentration active in stimulating synaptogenesis (hippocampal neurons)	Spine numbers (spinogenesis) vs vehicle (hippocampal neurons)	Number of spines per 50 μm dendrite length (hippocampal neurons; 5 days)	Average spine head width (hippocampal neurons; 10^−12 M)	Increase in the number of spines vs vehicle (hippocampal neurons; 10^−12 M)	Mean spine numbers per 50 μm dendrite length (hippocampal neurons; [1])	Spine density, dose dependence (hippocampal neurons)	Spines per 50 μm dendrite length, CA1 neurons (CA1 hippocampal neurons; 10^−12 M, 2 days)	Mean spine numbers per 50 μm dendrite length (hippocampal neurons; HGF 2.5 ng/ml (sub-threshold), 5 days)	Mean spine numbers per 50 μm dendrite length (hippocampal neurons; HGF 5 ng/ml, 5 days)	Mean spine numbers per 50 μm dendrite length (hippocampal neurons; HGF 10 ng/ml, 5 days)	Mean spine numbers per 50 μm dendrite length (hippocampal neurons; HGF 20 ng/ml, 5 days)	Spines per 50 μm dendrite length, CA1 neurons (CA1 hippocampal neurons; HGF 10 ng/ml, 48 hours)
CCCCCC(=O)N[C@@H](Cc1ccc(O)cc1)C(=O)N[C@H](C(=O)NCCCCCC(N)=O)[C@@H](C)CC [Dihexa, N-hexanoic-Tyr-Ile-(6)-aminohexanoic amide] (Hexanoyl-Tyr-Ile-[Ahx]-NH2)	10^−12 M	dramatic increase in spine numbers	11 spines per 50 μm dendrite length	0.80 μm	~3 fold	23.9 spines per 50 μm dendrite length	dose-dependently stimulate spinogenesis	11 spines per 50 μm dendrite length and 15.0 spines per 50 μm dendrite length	–	–	–	–	–
CCCC[C@H](N)C(=O)N[C@@H](Cc1ccc(O)cc1)C(=O)N[C@H](C(=O)N[C@@H](Cc1c[nH]cn1)C(=O)N1CCC[C@H]1C(=O)N[C@@H](Cc1ccccc1)C(=O)O)[C@@H](C)CC [Nle1-AngIV, reference compound] (H-[Nle]YIHPF-OH; N-terminus and C-terminus assumed)	–	dramatic increase in spine numbers	22 spines per 50 μm dendrite length	0.87 μm	greater than 2 fold	2.6 spines per 50 μm dendrite length	dose-dependently stimulate spinogenesis	11 spines per 50 μm dendrite length	–	–	–	–	–
HGF: Hepatocyte growth factor, recombinant, purchased from R&D Systems	–	–	–	–	–	–	–	–	18.6 spines per 50 μm dendrite leng and 16.5 spines per 50 μm dendrite leng	24.7 spines per 50 μm dendrite leng	27.5 spines per 50 μm dendrite leng and 29.3 spines per 50 μm dendrite leng	27.0 spines per 50 μm dendrite leng	18.5 spines per 50 μm dendrite length
